# Reference: patent US12628825B2, “Methods of controlling or preventing infestation of plants by plant-parasitic nematodes of the genus Aphelenchoides spp., especially Aphelenchoides besseyi” (SYNGENTA CROP PROTECTION AG, priority 2020, dated 2026)
# System: Aphelenchoides besseyi
# Assay: Soybean pot trial in the greenhouse, seed treatment, nematode control
# Assay type: in vivo
# Conditions: 28-day after inoculation assessment
# Method: A soybean pot trial was carried out in the greenhouse of Holambra Field Station, state of Sao Paulo, Brazil, to evaluate the efficacy of nematicidal treatments against Aphelenchoides besseyi.
# The seeds of the susceptible soybean variety Nidera 6828 IPRO were treated (seed treatment) at the field station with the use of a slurry (spray solution) of 0.6 liter per 100 kg of seeds of soybean. The treated seeds (treatments 3-10) were then compared with the untreated checks.
# Two seeds were sowed in 1-liter pots with the Holambra Mix (25% of Holambra station soil and 75% pasteurized sand). […] The inoculation of each plant with the nematode was performed at 8 days after emergence (at the crop stage V1) by using a pipet with 1000 juveniles of Aphelenchoides per plant, directed to the base of the plant. Each plot of the trial was 1 pot containing 1 infested plant of soybean. A total of 6 replicates per treatment was used. The plants were grown in separated plastic chambers (to avoid contamination of plots) inside a greenhouse that averaged 30° C. in the day and 20° C. in the night. Plants were watered many times per day (for keeping a favourable environment for the growth of nematode population and migration to the aerial part of plants) by an automatic sprinkler system. […]
structure (smiles),measurement,setting,value
O=C(N[C@@H]1CC[C@@H]1c1ccc(Cl)cc1Cl)c1cccnc1C(F)(F)F (racemic) [cyclobutrifluram],comparison to Avicta 500FS and Ilevo 600FS,even at the lowest rate tested of 5 g AI per 100 kg of seeds,statistically superior
same,activity against Aphelenchoides besseyi which attacked soybean,seed treatment,excellent activity
